Assay results published in PubChem BioAssay AID248 (DTP/NCI, 2004).
Several values for one entry are separate records, joined by “and”; a condition that tells them apart may be missing. Identical values can stand only once. Inconclusive results and toxic doses are left out.

System: L1210 leukemia ip in BDF1 mice, survival T/C
Experiment: NCI In Vivo Anticancer Drug Screen. Data for tumor model L1210 Leukemia (intraperitoneal) in B6D2F1 (BDF1) mice
Details: endpoint: mean survival time, higher = longer survival
In short: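 Transplanted-tumor mice were given test agent; controls received vehicle only. Survival readings from the two groups were divided (treated over control).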

[1] = dose: 100.0 mg/kg/injection, schedule: Q04DX003 (ip), vehicle: Klucel (hydroxypropylcellulose) (HPC)
[2] = dose: 200.0 mg/kg/injection, schedule: Q04DX003 (ip), vehicle: Klucel (hydroxypropylcellulose) (HPC)
[3] = dose: 400.0 mg/kg/injection, schedule: Q04DX003 (ip), vehicle: Klucel (hydroxypropylcellulose) (HPC)
[4] = dose: 100.0 mg/kg/injection, schedule: Q01DX009 (ip), vehicle: saline with Tween-80
[5] = dose: 100.0 mg/kg/injection, schedule: Q04DX003 (ip), vehicle: saline with Tween-80
[6] = dose: 200.0 mg/kg/injection, schedule: Q01DX009 (ip), vehicle: saline with Tween-80
[7] = dose: 200.0 mg/kg/injection, schedule: Q04DX003 (ip), vehicle: saline with Tween-80
[8] = dose: 400.0 mg/kg/injection, schedule: Q01DX009 (ip), vehicle: saline with Tween-80
[9] = dose: 400.0 mg/kg/injection, schedule: Q04DX003 (ip), vehicle: saline with Tween-80
[10] = dose: 12.5 mg/kg/injection, schedule: Q01DX009 (ip), vehicle: saline
[11] = dose: 50.0 mg/kg/injection, schedule: Q01DX009 (ip), vehicle: saline
[12] = dose: 5.0 mg/kg/injection, schedule: Q01DX001 (ip), vehicle: saline
[13] = dose: 100.0 mg/kg/injection, schedule: Q01DX001 (ip), vehicle: saline
[14] = dose: 200.0 mg/kg/injection, schedule: Q01DX001 (ip), vehicle: saline
[15] = dose: 400.0 mg/kg/injection, schedule: Q01DX001 (ip), vehicle: saline
[16] = dose: 100.0 mg/kg/injection, schedule: Q01DX001 (ip), vehicle: carboxymethylcellulose (CMC)
[17] = dose: 200.0 mg/kg/injection, schedule: Q01DX001 (ip), vehicle: carboxymethylcellulose (CMC)
[18] = dose: 400.0 mg/kg/injection, schedule: Q01DX001 (ip), vehicle: carboxymethylcellulose (CMC)
[19] = dose: 100.0 mg/kg/injection, schedule: Q01DX009 (ip), vehicle: Klucel (hydroxypropylcellulose) (HPC)
[20] = dose: 200.0 mg/kg/injection, schedule: Q01DX009 (ip), vehicle: Klucel (hydroxypropylcellulose) (HPC)
[21] = dose: 100.0 mg/kg/injection, schedule: Q04DX002 (ip), vehicle: Klucel (hydroxypropylcellulose) (HPC)
[22] = dose: 200.0 mg/kg/injection, schedule: Q04DX002 (ip), vehicle: Klucel (hydroxypropylcellulose) (HPC)

In the case of O=C1CCCC23C4CCCC4C12C1CCCC13 (stereo unspecified), the T/C (dose: 100.0 mg/kg/injection, schedule: Q04DX002 (ip), vehicle: gum acacia) is reported as 100 % of control, the T/C (dose: 200.0 mg/kg/injection, schedule: Q04DX002 (ip), vehicle: gum acacia) is reported as 97 % of control and the T/C (dose: 400.0 mg/kg/injection, schedule: Q04DX002 (ip), vehicle: gum acacia) is reported as 100 % of control.

In the case of CC1(CCCc2ccc([N+](=O)[O-])cc2)N=C(N)N=C(N)N1c1ccccc1 (stereo unspecified), the T/C (dose: 25.0 mg/kg/injection, schedule: Q04DX003 (ip), vehicle: Klucel (hydroxypropylcellulose) (HPC)) is reported as 103 % of control, the T/C (dose: 50.0 mg/kg/injection, schedule: Q04DX003 (ip), vehicle: Klucel (hydroxypropylcellulose) (HPC)) is reported as 100 % of control and the T/C [1] is reported as 121 % of control.

O=C(O)C1C=CC(C(=O)O)c2ccccc21 (stereo unspecified) was tested, and the T/C [1] was 102 % of control, the T/C [2] was 96 % of control and the T/C [3] was 98 % of control.

In the case of N#Cc1ccc2c(c1)C([P+](c1ccccc1)(c1ccccc1)c1ccccc1)c1ccccc1-2 (stereo unspecified), the T/C (dose: 75.0 mg/kg/injection, schedule: Q01DX001 (ip), vehicle: carboxymethylcellulose (CMC)) is reported as 88 % of control and the T/C (dose: 300.0 mg/kg/injection, schedule: Q01DX001 (ip), vehicle: carboxymethylcellulose (CMC)) is reported as 92 % of control.

For CCOC(=O)CCC(C)(C#N)c1ccccc1 (stereo unspecified), the T/C [4] was 104 % of control, the T/C [5] was 108 % of control and the T/C [6] was 98 % of control. For the same compound, the T/C [7] was 99 % of control, the T/C [8] was 97 % of control and the T/C [9] was 106 % of control.

In the case of CCNC(=O)OCCc1c2ccccc2[n+]([O-])c2ccccc12, the T/C [5] is reported as 96 % of control, the T/C [7] is reported as 102 % of control and the T/C [9] is reported as 90 % of control.

In the case of CCOC(=O)C(Cc1ccc(Cl)c(Cl)c1)(Cc1ccc(Cl)c(Cl)c1)C(=O)OCC, the T/C [4] is reported as 104 % of control, the T/C [5] is reported as 88 % of control and the T/C [6] is reported as 97 % of control. For the same compound, the T/C [7] was 89 % of control, the T/C [8] was 95 % of control and the T/C [9] was 105 % of control.

NNC(=O)C(Sc1ccccc1)c1ccccc1 (stereo unspecified) was tested, and the T/C [1] was 95 % of control, the T/C [2] was 98 % of control and the T/C [3] was 101 % of control.

With CC1=C(/C=C\C(C)=N\NC(=O)c2ccc[n+](C)c2)C(C)(C)CCC1 the T/C [10] was 98 % of control, the T/C (dose: 25.0 mg/kg/injection, schedule: Q01DX009 (ip), vehicle: saline) was 88 % of control and the T/C [11] was 104 % of control and 88 % of control.

O=C(NCCCCCCCCCCNC(=O)N1CC1)N1CC1 was tested, and the T/C (dose: 0.12 mg/kg/injection, schedule: Q01DX Z (ip), vehicle: carboxymethylcellulose (CMC)) was 94 % of control, the T/C (dose: 0.25 mg/kg/injection, schedule: Q01DX Z (ip), vehicle: carboxymethylcellulose (CMC)) was 96 % of control and the T/C (dose: 0.4 mg/kg/injection, schedule: Q01DX Z (ip), vehicle: carboxymethylcellulose (CMC)) was 115 % of control. The T/C (dose: 0.5 mg/kg/injection, schedule: Q01DX Z (ip), vehicle: carboxymethylcellulose (CMC)) was 108 % of control, the T/C (dose: 0.5 mg/kg/injection, schedule: Q01DX Z (ip), vehicle: saline) was 110 % of control and the T/C (dose: 0.8 mg/kg/injection, schedule: Q01DX Z (ip), vehicle: carboxymethylcellulose (CMC)) was 123 % of control. For the same compound, the T/C (dose: 0.8 mg/kg/injection, schedule: Q01DX Z (ip), vehicle: saline) was 113 % of control, the T/C (dose: 1.0 mg/kg/injection, schedule: Q01DX Z (ip), vehicle: carboxymethylcellulose (CMC)) was 118 % of control and the T/C (dose: 1.2 mg/kg/injection, schedule: Q01DX Z (ip), vehicle: saline) was 124 % of control. For the same compound, the T/C (dose: 1.8 mg/kg/injection, schedule: Q01DX Z (ip), vehicle: carboxymethylcellulose (CMC)) was 155 % of control, the T/C (dose: 1.8 mg/kg/injection, schedule: Q01DX Z (ip), vehicle: saline) was 118 % of control and the T/C (dose: 2.6 mg/kg/injection, schedule: Q01DX Z (ip), vehicle: carboxymethylcellulose (CMC)) was 155 % of control and 160 % of control. For the same compound, the T/C (dose: 2.7 mg/kg/injection, schedule: Q01DX Z (ip), vehicle: saline) was 168 % of control, the T/C (dose: 4.0 mg/kg/injection, schedule: Q01DX Z (ip), vehicle: carboxymethylcellulose (CMC)) was 119 % of control and the T/C [12] was 119 % of control. The T/C (dose: 6.0 mg/kg/injection, schedule: Q01DX Z (ip), vehicle: carboxymethylcellulose (CMC)) was 96 % of control and the T/C (dose: 6.0 mg/kg/injection, schedule: Q01DX Z (ip), vehicle: saline) was 112 % of control.

With CCCCCCCCCCCCCCSSCCCCCCCCCCCCCC the T/C [13] was 98 % of control, the T/C [14] was 92 % of control and the T/C [15] was 96 % of control.

CC(=O)OCc1cc(=O)c(OC(C)=O)co1 was tested, and the T/C [1] was 112 % of control, the T/C [2] was 96 % of control and the T/C [3] was 98 % of control.

In the case of Cc1cc(N(CCCl)CCCl)ccc1C=Nc1cc(Cl)c(O)c(Cl)c1, the T/C [16] is reported as 96 % of control, the T/C [17] is reported as 96 % of control and the T/C [18] is reported as 105 % of control.

Nc1ncnc2c1c(-c1nn[nH]n1)cn2C1OC(CO)C(O)C1O (stereo unspecified) was tested, and the T/C (dose: 12.5 mg/kg/injection, schedule: Q01DX005 (ip), vehicle: saline) was 121 % of control, the T/C [10] was 122 % of control and the T/C (dose: 50.0 mg/kg/injection, schedule: Q01DX005 (ip), vehicle: saline) was 108 % of control. For the same compound, the T/C [11] was 98 % of control.

For O=C1C=C(N2CCOCC2)c2cccc3cccc1c23, the T/C (dose: 50.0 mg/kg/injection, schedule: Q01DX001 (ip), vehicle: Klucel (hydroxypropylcellulose) (HPC)) was 106 % of control, the T/C (dose: 100.0 mg/kg/injection, schedule: Q01DX001 (ip), vehicle: Klucel (hydroxypropylcellulose) (HPC)) was 104 % of control and the T/C [19] was 94 % of control. The T/C (dose: 200.0 mg/kg/injection, schedule: Q01DX001 (ip), vehicle: Klucel (hydroxypropylcellulose) (HPC)) was 98 % of control and the T/C [20] was 96 % of control.

CS(=O)(=O)O.[Cu+2] was tested, and the T/C [12] was 93 % of control and the T/C (dose: 10.0 mg/kg/injection, schedule: Q01DX001 (ip), vehicle: saline) was 96 % of control.

[O-][n+]1ccccc1-c1ccccc1 was tested, and the T/C (dose: 50.0 mg/kg/injection, schedule: Q01DX009 (ip), vehicle: Klucel (hydroxypropylcellulose) (HPC)) was 104 % of control, the T/C [19] was 101 % of control and the T/C [21] was 104 % of control. For the same compound, the T/C [20] was 118 % of control and the T/C [22] was 107 % of control.

With Cc1ccc(S(=O)(=O)N2Cc3ccc([N+](=O)[O-])cc3C2)cc1 the T/C [16] was 100 % of control, the T/C [17] was 102 % of control and the T/C [18] was 105 % of control.

O=C(CCCCNC(=O)C1CCCN1Sc1ccc([N+](=O)[O-])cc1[N+](=O)[O-])OCc1ccccc1 (stereo unspecified) was tested, and the T/C [21] was 90 % of control, the T/C [22] was 94 % of control and the T/C (dose: 400.0 mg/kg/injection, schedule: Q04DX002 (ip), vehicle: Klucel (hydroxypropylcellulose) (HPC)) was 94 % of control.

With CCOC(=O)c1cccc2c([N+](=O)[O-])cccc12 the T/C [13] was 94 % of control, the T/C (dose: 100.0 mg/kg/injection, schedule: Q01DX009 (ip), vehicle: acetone) was 96 % of control and the T/C [14] was 98 % of control. The T/C (dose: 200.0 mg/kg/injection, schedule: Q01DX009 (ip), vehicle: acetone) was 88 % of control, the T/C [15] was 98 % of control and the T/C (dose: 400.0 mg/kg/injection, schedule: Q01DX009 (ip), vehicle: acetone) was 97 % of control.

With Cc1ccc(S(=O)(=O)OC[C@H]2CC=CC[C@H]2COS(=O)(=O)c2ccc(C)cc2)cc1 the T/C (dose: 75.0 mg/kg/injection, schedule: Q01DX009 (ip), vehicle: saline with Tween-80) was 91 % of control, the T/C (dose: 100.0 mg/kg/injection, schedule: Q01DX009 (ip), vehicle: DMSO) was 95 % of control and the T/C (dose: 100.0 mg/kg/injection, schedule: Q04DX003 (ip), vehicle: DMSO) was 86 % of control. For the same compound, the T/C [5] was 88 % of control, the T/C (dose: 150.0 mg/kg/injection, schedule: Q01DX009 (ip), vehicle: saline with Tween-80) was 107 % of control and the T/C (dose: 200.0 mg/kg/injection, schedule: Q01DX009 (ip), vehicle: DMSO) was 101 % of control. The T/C (dose: 200.0 mg/kg/injection, schedule: Q04DX003 (ip), vehicle: DMSO) was 86 % of control, the T/C [7] was 86 % of control and the T/C (dose: 300.0 mg/kg/injection, schedule: Q01DX009 (ip), vehicle: saline with Tween-80) was 101 % of control. The T/C (dose: 400.0 mg/kg/injection, schedule: Q04DX003 (ip), vehicle: DMSO) was 88 % of control.
